Tested on: STING inhibition in human whole blood (IFNα2α production)
Assay: Human whole blood assay (HWBA): cGAMP-stimulated IFNα2α production
Assay type: cell-based
Conditions: Homo sapiens
Procedure, shortened: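 Na-citrate human whole blood from ≥3 healthy donors, preincubated 60 min at room temperature with compound (8 concentrations, top 10 μM, ~1:5 steps, 0.1% DMSO), then stimulated with cGAMP and incubated 22 h at 37 °C. Plasma IFNα2α measured by MSD immunoassay; % control versus stimulated/unstimulated wells, IC50 by 4-parameter logistic fit.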

Row | Structure (SMILES) | IC50 [µM]
1 | Cn1cc2cc(-c3nc(-c4cccc5nn(C[C@H](O)c6ccc(OCC7CCOCC7)cc6)cc45)c(C4CC4)n3C)c(C3CC3)nc2n1 [Example 68] | 0.35
2 | Cc1nc2nn(CC(O)CN3CCN(C)CC3)cc2cc1-n1nc(-c2cccc3nn(C[C@H](O)c4ccccc4)cc23)c(C(C)C)c1C (stereo partly drawn) [Example 70, 1-[5-(3-{2-[(2R)-2-hydroxy-2-phenylethyl]-2H-indazol-4-yl}-5-methyl-4-(propan-2-yl)-1H-pyrazol-1-yl)-6-methyl-2H-pyrazolo[3,4-b]pyridin-2-yl]-3-(4-methylpiperazin-1-yl)propan-2-ol] | 0.37
3 | CCc1nc2nn(C)cc2cc1-c1nc(-c2cccc3nn(C[C@H](F)c4ccc(Cl)cc4)cc23)c(C2CC2)n1C [Example 72, 2-[(2R)-2-(4-chlorophenyl)-2-fluoroethyl]-4-(5-cyclopropyl-2-{6-ethyl-2-methyl-2H-pyrazolo[3,4-b]pyridin-5-yl}-1-methyl-1H-imidazol-4-yl)-2H-indazole] | 0.4
4 | CC(C)c1nc2nn(C)cc2cc1-c1nc(-c2cccc3nn(CS(=O)(=O)c4ccccc4)cc23)c(C2CC2)n1C [Example 96, 2-[(Benzenesulfonyl)methyl]-4-{5-cyclopropyl-1-methyl-2-[2-methyl-6-(propan-2-yl)-2H-pyrazolo[3,4-b]pyridin-5-yl]-1H-imidazol-4-yl}-2H-indazole] | 2.9
5 | Cn1c(-c2cc3cn(CCC#N)nc3nc2C2CC2)nc(-c2cccc3nn(C[C@H](O)c4ccccc4)cc23)c1C1CC1 [Example 104, 3-[6-cyclopropyl-5-(5-cyclopropyl-4-{2-[(2R)-2-hydroxy-2-phenylethyl]-2H-indazol-4-yl}-1-methyl-1H-imidazol-2-yl)-2H-pyrazolo[3,4-b]pyridin-2-yl]propanenitrile] | 0.049
6 | Cc1nc2cc(C)c(-n3nc(-c4cccc5nn(C[C@H](O)c6ccccc6)cc45)c(C(C)C)c3C)cc2[nH]1 [Example 105, (1R)-2-{4-[1-(2,5-dimethyl-1H-1,3-benzodiazol-6-yl)-5-methyl-4-(propan-2-yl)-1H-pyrazol-3-yl]-2H-indazol-2-yl}-1-phenylethan-1-ol] | 1.6
7 | CCc1nc2nn(C)cc2cc1-c1nc(-c2cccc3nn(C[C@H](F)c4ccccc4)cc23)c(C2CC2)n1C [Example 107, 4-(5-cyclopropyl-2-{6-ethyl-2-methyl-2H-pyrazolo[3,4-b]pyridin-5-yl}-1-methyl-1H-imidazol-4-yl)-2-[(2R)-2-fluoro-2-phenylethyl]-2H-indazole] | 0.031
8 | CC(C)c1c(-c2cccc3nn(C[C@H](O)c4ccccc4)cc23)nc(-c2cc3cn(C)nc3cc2OC(F)(F)F)n1C [Example 109, (1R)-2-(4-{1-methyl-2-[2-methyl-6-(trifluoromethoxy)-2H-indazol-5-yl]-5-(propan-2-yl)-1H-imidazol-4-yl}-2H-indazol-2-yl)-1-phenylethan-1-ol] | 0.078
9 | Cn1cc2cc(-c3nc(-c4cccc5nn(C[C@H](O)c6ccccc6)cc45)c(C4CC4)n3C)c(C3CC3(F)F)nc2n1 (stereo partly drawn) [Example 110, (1R)-2-(4-{5-cyclopropyl-2-[6-(2,2-difluorocyclopropyl)-2-methyl-2H-pyrazolo[3,4-b]pyridin-5-yl]-1-methyl-1H-imidazol-4-yl}-2H-indazol-2-yl)-1-phenylethan-1-ol] | 0.085

More lines, now with the values ahead:

Row | IC50 [µM] | Structure (SMILES)
10 | 0.33 | Cc1nc2nn(CC(O)CO)cc2cc1-n1nc(-c2cccc3nn(C[C@H](O)c4ccccc4)cc23)c(C(C)C)c1C (stereo partly drawn) [Example 67, 3-[5-(3-{2-[(2R)-2-hydroxy-2-phenylethyl]-2H-indazol-4-yl}-5-methyl-4-(propan-2-yl)-1H-pyrazol-1-yl)-6-methyl-2H-pyrazolo[3,4-b]pyridin-2-yl]propane-1,2-diol]
11 | 0.36 | Cn1cc2cc(-c3nc(-c4cccc5nn(C[C@H](O)c6ccc(OC7COC7)cc6)cc45)c(C4CC4)n3C)c(C3CC3)nc2n1 [Example 69, (1R)-2-[4-(5-cyclopropyl-2-{6-cyclopropyl-2-methyl-2H-pyrazolo[3,4-b]pyridin-5-yl}-1-methyl-1H-imidazol-4-yl)-2H-indazol-2-yl]-1-[4-(oxetan-3-yloxy)phenyl]ethan-1-ol]
12 | 0.44 | Cc1c(C(C)C)c(-c2cccc3nn(C[C@H](O)c4ccccc4)cc23)nn1-c1cc2cn(C)nc2nc1C1CCOCC1 [Example 73, (1R)-2-(4-{5-methyl-1-[2-methyl-6-(oxan-4-yl)-2H-pyrazolo[3,4-b]pyridin-5-yl]-4-(propan-2-yl)-1H-pyrazol-3-yl}-2H-indazol-2-yl)-1-phenylethan-1-ol]
13 | 0.052 | CC(C)c1nc2nn(C)cc2cc1-c1nc(-c2cccc3nn(C[C@H](O)c4ccccc4)cc23)c(C2CC2)n1C [Example 97, (1R)-2-(4-{5-Cyclopropyl-1-methyl-2-[2-methyl-6-(propan-2-yl)-2H-pyrazolo[3,4-b]pyridin-5-yl]-1H-imidazol-4-yl}-2H-indazol-2-yl)-1-phenylethan-1-ol]
14 | 0.031 | Cc1nc2nn(CC#N)cc2cc1-n1nc(-c2cccc3nn(C[C@H](O)c4ccccc4)cc23)c(C(C)C)c1C [Example 98, 2-[5-(3-{2-[(2R)-2-hydroxy-2-phenylethyl]-2H-indazol-4-yl}-5-methyl-4-(propan-2-yl)-1H-pyrazol-1-yl)-6-methyl-2H-pyrazolo[3,4-b]pyridin-2-yl]acetonitrile]
15 | 0.037 | CCn1cc2cc(-n3nc(-c4cccc5nn(C[C@H](O)c6ccccc6)cc45)c(C(C)C)c3C)c(C)nc2n1 [Example 100, (1R)-2-[4-(1-{2-ethyl-6-methyl-2H-pyrazolo[3,4-b]pyridin-5-yl}-5-methyl-4-(propan-2-yl)-1H-pyrazol-3-yl)-2H-indazol-2-yl]-1-phenylethan-1-ol]
16 | 0.039 | Cc1c(C(C)C)c(-c2cccc3nn(C[C@H](O)c4ccc(OCCN(C)C)cc4)cc23)nn1-c1cc2cn(C)nc2nc1C1CC1 [Example 101]
17 | 0.04 | Cc1nc2nn(C)cc2cc1-n1nc(-c2cccc3nn(C[C@H](O)c4ccccc4)cc23)c(C(C)C)c1C [Example 102, (1R)-2-[4-(1-{2,6-Dimethyl-2H-pyrazolo[3,4-b]pyridin-5-yl}-5-methyl-4-(propan-2-yl)-1H-pyrazol-3-yl)-2H-indazol-2-yl]-1-phenylethan-1-ol]
18 | 0.044 | Cc1nc2nn(CC(F)F)cc2cc1-n1nc(-c2cccc3nn(C[C@H](O)c4ccccc4)cc23)c(C(C)C)c1C [Example 103, (1R)-2-(4-{1-[2-(2,2-difluoroethyl)-6-methyl-2H-pyrazolo[3,4-b]pyridin-5-yl]-5-methyl-4-(propan-2-yl)-1H-pyrazol-3-yl}-2H-indazol-2-yl)-1-phenylethan-1-ol]
19 | 0.028 | Cc1c(C(C)C)c(-c2cccc3nn(C[C@H](O)c4ccccc4)cc23)nn1-c1cc2cn(C)nc2nc1CO [Example 106, (1R)-2-(4-{1-[6-(hydroxymethyl)-2-methyl-2H-pyrazolo[3,4-b]pyridin-5-yl]-5-methyl-4-(propan-2-yl)-1H-pyrazol-3-yl}-2H-indazol-2-yl)-1-phenylethan-1-ol]
20 | 0.038 | Cc1nc2nn(C)cc2cc1-n1nc(-c2cccc3nn(C[C@H](OCC(N)=O)c4ccccc4)cc23)c(C(C)C)c1C [Example 108, 2-[(1R) -2-[4-(1-{2,6-dimethyl-2H-pyrazolo[3,4-b]pyridin-5-yl}-5-methyl-4-(propan-2-yl)-1H-pyrazol-3-yl)-2H-indazol-2-yl]-1-phenylethoxy]acetamide]
